Tests used:
Test in all cases: relative viability (nuclei count vs DMSO), 5 days (fraction); higher = more cells survive
[1] = compound: CC1=C(C(=O)N2C=CSC2=N1)CCN3CCC(=C(C4=CC=CC=C4)C5=CC=C(C=C5)F)CC3 + CC(C)C[C@H](NC(=O)[C@H](Cc1ccccc1)NC(=O)c1cnccn1)B(O)O [Bortezomib] (partner 0.002 µM)
In short: (§1)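 Lung cancer cell lines were seeded in 1536-well plates and dosed by pin tool the next day, with either a single drug or a fixed anchor-drug dose combined with five library-drug doses (not always all listed) spaced in √10 steps. Five days later, one step fixed the cells and stained their nuclei (final 0.05% Triton X-100, 1% formaldehyde, 1 ug/ml Hoechst), and nuclei were counted on 4× images. Relative viability is the nuclei count in treated wells divided by the count in vehicle wells, and each value is the median of duplicate plates.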

[2] = compound: CC1=C(C(=O)N2C=CSC2=N1)CCN3CCC(=C(C4=CC=CC=C4)C5=CC=C(C=C5)F)CC3 + Nc1nc2[nH]cc(CCc3ccc(C(=O)N[C@@H](CCC(=O)O)C(=O)O)cc3)c2c(=O)[nH]1 [Pemetrexed] (partner 0.2 µM)
In short: as §1

[3] = compound: CC1=C(C(=O)N2C=CSC2=N1)CCN3CCC(=C(C4=CC=CC=C4)C5=CC=C(C=C5)F)CC3 + Cc1nc(NC(=O)N2CCC[C@H]2C(N)=O)sc1-c1ccnc(C(C)(C)C(F)(F)F)c1 [Alpelisib] (partner 2 µM)
In short: as §1

[4] = compound: CC1=C(C(=O)N2C=CSC2=N1)CCN3CCC(=C(C4=CC=CC=C4)C5=CC=C(C=C5)F)CC3 + O=C(c1cc(Cc2n[nH]c(=O)c3ccccc23)ccc1F)N1CCN(C(=O)C2CC2)CC1 [Olaparib] (partner 8 µM)
In short: as §1

Row | Cell Line | relative viability ([1]; first compound 0.08 µM) | relative viability ([1]; first compound 0.253 µM) | relative viability ([1]; first compound 0.8 µM) | relative viability ([1]; first compound 2.53 µM) | relative viability ([1]; first compound 8 µM) | relative viability ([2]; first compound 0.08 µM) | relative viability ([2]; first compound 0.253 µM) | relative viability ([2]; first compound 0.8 µM) | relative viability ([2]; first compound 2.53 µM) | relative viability ([2]; first compound 8 µM) | relative viability ([3]; first compound 0.08 µM) | relative viability ([3]; first compound 0.253 µM) | relative viability ([3]; first compound 0.8 µM) | relative viability ([3]; first compound 2.53 µM) | relative viability ([3]; first compound 8 µM) | relative viability ([4]; first compound 0.08 µM) | relative viability ([4]; first compound 0.253 µM) | relative viability ([4]; first compound 0.8 µM) | relative viability ([4]; first compound 2.53 µM) | relative viability ([4]; first compound 8 µM)
1 | 201T | 1.16 | 1.12 | 1.08 | 1.16 | 1.13 | 0.304 | 0.335 | 0.335 | 0.342 | 0.24 | 1.02 | 1.04 | 1.08 | 1.07 | 0.852 | 0.941 | 0.791 | 0.824 | 0.92 | 0.884
2 | A549 | – | – | – | – | – | – | – | – | – | – | 0.915 | 0.923 | 0.747 | 0.871 | 0.275 | – | 0.212 | 0.385 | 0.36 | 0.151
3 | A-427 | 1.07 | 1.08 | 0.984 | 1.03 | 0.834 | 1.06 | 1.07 | 0.929 | 1.07 | 0.952 | 1.15 | 1.11 | 1.05 | 1.1 | 1.08 | 0.779 | 0.74 | 0.723 | 0.803 | 0.658
4 | ABC-1 | 0.313 | 0.297 | 0.252 | 0.244 | 0.269 | – | – | – | – | – | 0.989 | 0.935 | 1.08 | 1.09 | 0.605 | 0.836 | – | 0.99 | 1.01 | 0.536
5 | BEN | 0.76 | 0.757 | 0.864 | 0.828 | 0.534 | 0.928 | 0.753 | 0.715 | 0.942 | 0.753 | 0.826 | 1.09 | 1.09 | 0.974 | 0.69 | 1.07 | 1.22 | 1.09 | 1.06 | 0.89
6 | CAL-12T | – | 0.745 | 0.843 | 1.03 | 0.733 | 1.31 | 1.21 | 1.32 | 1.57 | 0.765 | 0.811 | 1.34 | 1.45 | 1.49 | 0.589 | 0.724 | 0.718 | 0.79 | 0.763 | 0.6
7 | COR-L23 | 0.701 | 0.74 | 1.02 | 1.18 | 0.397 | 0.198 | 0.21 | 0.199 | 0.203 | 0.203 | 0.755 | 1.05 | 0.818 | 0.877 | 0.667 | 0.311 | 0.32 | 0.344 | 0.376 | 0.31
8 | COR-L 105 | 0.83 | 0.691 | 0.75 | 0.919 | 0.568 | 1.03 | 1.26 | 1.27 | 1.4 | 0.89 | 0.984 | 1.09 | 1.16 | 1.1 | 0.963 | 0.542 | 0.718 | 0.633 | 0.753 | 0.609
9 | Calu-6 | 1.05 | 1.14 | 0.933 | 1.02 | 0.767 | – | – | – | – | – | 1.02 | 1.06 | 0.91 | 0.997 | 0.807 | 0.475 | 0.602 | 0.642 | 0.573 | 0.462

— the supplement of paper PMC10307832
